Here are results for one compound from patent publication US7638639B2, “Substituted pyrrolidine and related compounds” (Theravance, Inc., priority 2003, dated 2009).

In one assay the target is T1, hM2 receptor (Homo sapiens, UniProt P08172).
T1 construct: expressed in transfected cells
T1 sequence (P08172 1-466): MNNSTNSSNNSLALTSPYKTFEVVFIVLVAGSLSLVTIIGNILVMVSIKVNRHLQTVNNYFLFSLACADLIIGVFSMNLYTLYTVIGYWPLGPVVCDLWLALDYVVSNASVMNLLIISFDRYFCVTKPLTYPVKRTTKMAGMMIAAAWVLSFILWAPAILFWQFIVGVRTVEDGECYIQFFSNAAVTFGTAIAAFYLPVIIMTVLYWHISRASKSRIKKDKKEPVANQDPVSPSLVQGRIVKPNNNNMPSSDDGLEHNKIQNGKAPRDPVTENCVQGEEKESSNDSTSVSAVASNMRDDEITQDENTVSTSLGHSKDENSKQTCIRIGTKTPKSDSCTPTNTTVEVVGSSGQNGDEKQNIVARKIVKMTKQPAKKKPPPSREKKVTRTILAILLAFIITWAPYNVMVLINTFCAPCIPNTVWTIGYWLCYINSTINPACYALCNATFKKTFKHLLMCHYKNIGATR
As to the kind of experiment: Blockade of agonist-mediated [35S]GTPγS binding. The following applies: CHO-K1 cells expressing the hM2 receptor; read-out: Ki for blockade of oxotremorine-stimulated [35S]GTPγS binding. Type of assay: biochemical. As to the method:
B. Blockade of Agonist-Mediated GTPγ[^35S] Binding
In a second functional assay, the functional potency of a test compound is determined by measuring the ability of the compound to block oxotremorine-stimulated [^35S]GTPγS binding in CHO-K^1 cells expressing the hM2 receptor. At the time of use, frozen membranes were thawed and then diluted in assay buffer with a final target tissue concentration of 5-10 μg protein per well. The membranes were briefly homogenized using a Polytron PT-2100 tissue disrupter and then added to the assay plates.
The EC90 value (effective concentration for 90% maximal response) for stimulation of [^35S]GTPγS binding by the agonist oxotremorine was determined in each experiment.
The assay plates were then incubated at 37° C. for 60 minutes. The assay plates were filtered over 1% BSA-pretreated GF/B filters using a PerkinElmer 96-well harvester. The plates were rinsed with ice-cold wash buffer for 3×3 seconds and then air or vacuum dried. Microscint-20 scintillation liquid (50 μL) was added to each well, and each plate was sealed and radioactivity counted on a topcounter (PerkinElmer). Data were analyzed by nonlinear regression analysis with the GraphPad Prism Software package (GraphPad Software, Inc., San Diego, Calif.) using the non-linear regression, one-site competition equation. […]

Assay [1] addresses T2, hM3 muscarinic receptor subtype (Homo sapiens, UniProt P20309).
T2 construct: expressed in transfected cells
Kind of assay: Radioligand binding assay ([3H]-NMS displacement), hM3. On the procedure: A. Membrane Preparation from Cells Expressing hM1, hM2, hM3 and hM4 Muscarinic Receptor Subtypes
CHO (Chinese hamster ovary) cell lines stably expressing cloned human hM1, hM2, hM3 and hM4 muscarinic receptor subtypes, respectively, were grown to near confluency in medium consisting of HAM's F-12 supplemented with 10% FBS (Fetal Bovine Serum) and 250 μg/mL Geneticin. The cells were grown in a 5% CO2, 37° C. incubator and lifted with 2 mm EDTA in dPBS. Cells were collected by 5 minute centrifugation at 650×g, and cell pellets were either stored frozen at −80° C. or membranes were prepared immediately. For membrane preparation, cell pellets were resuspended in lysis buffer and homogenized with a Polytron PT-2100 tissue disrupter (Kinematica AG; 20 seconds×2 bursts). Crude membranes were centrifuged at 40,000×g for 15 minutes at 4° C. The membrane pellet was then resuspended with resuspension buffer and homogenized again with the Polytron tissue disrupter. The protein concentration of the membrane suspension was determined by the method described in Lowry, O. et al., 1951, […]: 193, 265. All membranes were stored frozen in aliquots at −80° C. or used immediately. Aliquots of prepared hM5 receptor membranes were purchased directly from Perkin Elmer and stored at −80° C. until use.
B. Radioligand Binding Assay on Muscarinic Receptor Subtypes hM1, hM2, hM3, hM4 and hM5
Radioligand binding assays were performed in 96-well microtiter plates in a total assay volume of 100 μL. CHO cell membranes stably expressing either the hM1, hM2, hM3, hM4 or hM5 muscarinic subtype were diluted in assay buffer to the following specific target protein concentrations (μg/well): 10 μg for hM1, 10-15 μg for hM2, 10-20 μg for hM3, 10-20 μg for hM4, and 10-12 μg for hM5. The membranes were briefly homogenized using a Polytron tissue disruptor (10 seconds) prior to assay plate addition. Saturation binding studies for determining KD values of the radioligand were performed using L-[N-methyl-3H]scopolamine methyl chloride ([^3H]-NMS) (TRK666, 84.0 Ci/mmol, Amersham Pharmacia Biotech, Buckinghamshire, England) at concentrations ranging from 0.001 nM to 20 nM. Displacement assays for determination of Ki values of test compounds were performed with [^3H]-NMS at 1 nM and eleven different test compound concentrations. The test compounds were initially dissolved to a concentration of 400 μM in dilution buffer and then serially diluted 5× with dilution buffer to final concentrations ranging from […] to […]. The addition order and volumes to the assay plates were as follows: 25 μL radioligand, 25 μL diluted test compound, and 50 μL membranes. Assay plates were incubated for 60 minutes at 37° C. Binding reactions were terminated by rapid filtration over GF/B glass fiber filter plates (PerkinElmer Inc., Wellesley, Mass.) pre-treated in 1% BSA. Filter plates were rinsed three times with wash buffer (10 mm HEPES) to remove unbound radioactivity. Plates were then air dried, and 50 μL Microscint-20 liquid scintillation fluid (PerkinElmer Inc., Wellesley, Mass.) was added to each well. The plates were then counted in a PerkinElmer Topcount liquid scintillation counter (PerkinElmer Inc., Wellesley, Mass.). Binding data were analyzed by nonlinear regression analysis with the GraphPad Prism Software package (GraphPad Software, Inc., San Diego, Calif.) using the one-site competition model. Ki values for test compounds were calculated from observed IC50 values and the KD value of the radioligand using the Cheng-Prusoff equation (Cheng Y; Prusoff W H. (1973) Biochemical Pharmacology, 22(23):3099-108). Ki values were converted to pKi values to determine the geometric mean and 95% confidence intervals. These summary statistics were then converted back to Ki values for data reporting.

T2 sequence (P20309 whole entry): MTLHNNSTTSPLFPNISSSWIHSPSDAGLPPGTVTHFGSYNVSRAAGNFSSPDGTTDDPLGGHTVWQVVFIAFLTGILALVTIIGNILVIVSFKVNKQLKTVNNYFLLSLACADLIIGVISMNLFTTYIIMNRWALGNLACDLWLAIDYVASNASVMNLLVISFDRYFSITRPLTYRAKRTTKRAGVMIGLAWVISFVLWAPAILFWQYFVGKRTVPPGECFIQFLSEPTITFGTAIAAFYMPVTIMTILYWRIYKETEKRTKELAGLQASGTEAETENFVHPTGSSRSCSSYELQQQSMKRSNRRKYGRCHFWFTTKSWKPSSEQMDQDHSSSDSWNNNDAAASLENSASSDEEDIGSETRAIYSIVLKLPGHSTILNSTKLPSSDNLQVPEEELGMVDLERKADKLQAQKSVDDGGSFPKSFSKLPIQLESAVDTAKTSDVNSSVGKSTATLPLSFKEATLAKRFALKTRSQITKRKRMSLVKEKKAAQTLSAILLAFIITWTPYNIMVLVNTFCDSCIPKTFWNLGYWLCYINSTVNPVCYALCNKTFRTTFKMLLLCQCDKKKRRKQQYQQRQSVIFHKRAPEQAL

For `CNCCCCCCCCN1CC[C@@H](C(C(N)=O)(c2ccccc2)c2ccccc2)C1` [Example 1, 2-[(S)-1-(8-Methylaminooctyl)pyrrolidin-3-yl]-2,2-diphenylacetamide], the Ki (usually the dissociation constant of the complex between target and ligand, obtained from inhibition or displacement) at hM2 receptor was below 5 nM; in assay [1] (CHO cell membranes, [3H]-NMS 1 nM, read-out: hM3 binding affinity (Ki)), 0.96 nM. Further, the “Δ hM3: change in binding affinity relative to compound of the invention” value in assay [1] (ratio of hM3 Ki values) was “×2.6”.
